Test results from PubChem BioAssay AID2060330 (Molecular Pharmacology Branch, DTP, NCI, 2025).
pIC50: −log10 of the molar value.

Tested on: LG0703-F948-PDC spheroids with HUVEC/MSC, viability
Experiment: Anticancer human tumor LG0703-F948-PDC patient-derived lung adenocarcinoma cell line growth inhibition [IpAb]
Details: for pIC50: curve of first compound; for viability, T/C: stronger effect = lower value
Source text: Combinatorial screen of targeted agents with ipatasertib and abemaciclib in multi-cell type tumor spheroids
A high-throughput screen of multi-cell type tumor spheroids was designed to identify active combinations of targeted small molecules and ipatasertib or abemaciclib. Complex spheroids include a stromal component modeled by human endothelial cells (HUVEC) and fibroblasts modeled by human mesenchymal stem cells (MSCs). The concentration ranges selected for each drug and investigational agent were based upon clinically achievable concentrations if the clinical Cmax of the agent was known.
Compounds. The drugs and investigational agents: ipatasertib (NSC767898), abemaciclib(NSC768073), selumetinib (NSC741078), trametinib (758246), adavosertib (NSC754352), everolimus (NSC733504), sapanisertib (NSC764658), vemurafenib (NSC761431), venetoclax (NSC766270), copanlisib (NSC809693), apelisib (NSC765974), palbociblib (NSC758247), vemurafenib (NSC761431), dabrafenib (NSC764134), ravoxertinib (NSC781343), BMS-387032 (NSC767048), sotorasib (NSC818433), talazoparib (NSC767125) and afursertib (NSC778305), were obtained from the National Cancer Institute (NCI) Developmental Therapeutics Program Chemical Repository. The FDA-approved anticancer drug set is available from the NCI Developmental Therapeutics Program. […] The stock solutions were prepared in dimethyl sulfoxide (DMSO, Sigma-Aldrich, St. Louis, MO, cat. D2650) at 800-fold the tested concentration and stored at -70 degrees C prior to their use. All drugs and investigational agents were tested over a range starting from a high concentration at or near the clinical Cmax and decreasing in half-log increments. If the clinical Cmax for an agent had not been determined, the highest concentration tested was 10 microM.
NCI60 Cell Culture. NCI60 cell lines were obtained from the NCI Developmental Therapeutics Program Tumor Repository. For each lot of cells, the Repository performed Applied Biosystems AmpFLSTR Identifiler testing with PCR amplification to confirm consistency with the published Identifier STR profile for each cell line. Cells were kept in continuous culture for no more than 20 passages. The optimal seeding densities for each of the cell lines at each time point assessed were determined prior to performing the concentration response studies. Briefly, the NCI60 human tumor lines were grown as monolayers in RPMI 1640 medium supplemented with 10% FBS and 2 mmol/L L-glutamine.
An additional 9 lines were from the NCI60 cell line panel including MDA-MB-231 breast carcinoma, MDA-MB-468 breast carcinoma, MCF7 breast carcinoma, Hs578T breast carcinoma, MALME-3M melanoma, SK-MEL-2 melanoma, SK-OV-3 ovarian carcinoma, DU-145 prostate carcinoma, PC-3 prostate carcinoma, all cell lines along with major genetic alterations are listed on Table 2. Pooled donor human umbilical vein endothelial cells (HUVEC, Lonza, cat. CC-2519) and human mesenchymal stem cells (hMSC, Lonza, cat. PT-2501) were purchased from Lonza (Walkersville, MD).
PDMR cell lines were grown in complete medium (DC medium): Dulbecco's modified Eagle's medium (DMEM)/F12 supplemented with 5% fetal bovine serum (FBS), 2 mM L-glutamine, 100 U/mL penicillin and 100 µg/ml streptomycin, 0.4 µg/ml hydrocortisone, 10 ng/ml epidermal growth factor (EGF) recombinant human protein, 24 µg/mL adenine, and 0.1 mg/mL primocin. During culture from frozen stock vials, PDMR cells were cultured in the same medium containing 10 µM Y-27632 (see Table 3). The PDCs were cultured in complete DMEM/F12 media without 10 microM Y-27632 dihydrochloride for at least two passages prior to the screen. The pooled donor HUVEC and hMSC were cultured in endothelial cell growth medium 2 (PromoCell, Heidelberg, Germany, cat. C-22011) and mesenchymal stem cell growth medium 2 (PromoCell, cat. C-28009), respectively. For all experiments, HUVEC and hMSC were used at passages </=5.
[…]

[1] = second compound 0.1 µM, first compound 0.0316 µM
[2] = second compound 0.1 µM, first compound 0.1 µM
[3] = second compound 0.316 µM, first compound 0.0316 µM
[4] = second compound 0.316 µM, first compound 0.1 µM
[5] = second compound 1 µM, first compound 0.0316 µM
[6] = second compound 1 µM, first compound 0.1 µM
[7] = second compound 3.16 µM, first compound 0.0316 µM
[8] = second compound 3.16 µM, first compound 0.1 µM
[9] = second compound 10 µM, first compound 0.0316 µM
[10] = second compound 10 µM, first compound 0.1 µM
[11] = second compound 0.1 µM, first compound 0.316 µM
[12] = second compound 0.1 µM, first compound 1 µM
[13] = second compound 0.1 µM, first compound 3.16 µM
[14] = second compound 0.1 µM, first compound 10 µM
[15] = second compound 0.316 µM, first compound 0.316 µM
[16] = second compound 0.316 µM, first compound 1 µM
[17] = second compound 0.316 µM, first compound 3.16 µM
[18] = second compound 0.316 µM, first compound 10 µM
[19] = second compound 1 µM, first compound 0.316 µM
[20] = second compound 1 µM, first compound 1 µM
[21] = second compound 1 µM, first compound 3.16 µM
[22] = second compound 1 µM, first compound 10 µM
[23] = second compound 3.16 µM, first compound 0.316 µM
[24] = second compound 3.16 µM, first compound 1 µM
[25] = second compound 3.16 µM, first compound 3.16 µM
[26] = second compound 3.16 µM, first compound 10 µM
[27] = second compound 10 µM, first compound 0.316 µM
[28] = second compound 10 µM, first compound 1 µM
[29] = second compound 10 µM, first compound 3.16 µM
[30] = second compound 10 µM, first compound 10 µM
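Further: spheroids exposed to compounds for seven days before readout.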
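Wherever viability, T/C is given: T/C percent relative to DMSO vehicle wells set as 100% viability.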

| Compound | pIC50 (second compound 0.1 µM) | pIC50 (second compound 0.316 µM) | pIC50 (second compound 1 µM) | pIC50 (second compound 3.16 µM) | pIC50 (second compound 10 µM) | viability, T/C [1] [%] | viability, T/C [2] [%] | viability, T/C [3] [%] | viability, T/C [4] [%] | viability, T/C [5] [%] | viability, T/C [6] [%] | viability, T/C [7] [%] | viability, T/C [8] [%] | viability, T/C [9] [%] | viability, T/C [10] [%] | viability, T/C [11] [%] | viability, T/C [12] [%] | viability, T/C [13] [%] | viability, T/C [14] [%] | viability, T/C [15] [%] | further results |
| --- | --- | --- | --- | --- | --- | --- | --- | --- | --- | --- | --- | --- | --- | --- | --- | --- | --- | --- | --- | --- | --- |
| CC(C)n1nc(-c2ccc3oc(N)nc3c2)c2c(N)ncnc21 + CC(C)NCC(C(=O)N1CCN(c2ncnc3c2C(C)CC3O)CC1)c1ccc(Cl)cc1 | 8.60 | 9.04 | > 9.50 | > 9.50 | > 9.50 | 18.9 | 18.9 | 16.4 | 12.6 | 11.2 | 9.31 | 7.95 | 7.22 | 5.1 | 29.5 | – | – | – | – | – | viability, T/C (second compound 0.1 µM, first compound 0.000316 µM): 77.5%; viability, T/C (second compound 0.1 µM, first compound 0.001 µM): 64.8%; viability, T/C (second compound 0.1 µM, first compound 0.00316 µM): 47.5%; viability, T/C (second compound 0.1 µM, first compound 0.01 µM): 25.9%; viability, T/C (second compound 0.316 µM, first compound 0.000316 µM): 65%; viability, T/C (second compound 0.316 µM, first compound 0.001 µM): 49%; viability, T/C (second compound 0.316 µM, first compound 0.00316 µM): 32%; viability, T/C (second compound 0.316 µM, first compound 0.01 µM): 21.4%; viability, T/C (second compound 1 µM, first compound 0.000316 µM): 49.1%; viability, T/C (second compound 1 µM, first compound 0.001 µM): 37%; viability, T/C (second compound 1 µM, first compound 0.00316 µM): 22.8%; viability, T/C (second compound 1 µM, first compound 0.01 µM): 14%; viability, T/C (second compound 3.16 µM, first compound 0.000316 µM): 39.7%; viability, T/C (second compound 3.16 µM, first compound 0.001 µM): 24.9%; viability, T/C (second compound 3.16 µM, first compound 0.00316 µM): 15.1%; viability, T/C (second compound 3.16 µM, first compound 0.01 µM): 8.55%; viability, T/C (second compound 10 µM, first compound 0.000316 µM): 31.7%; viability, T/C (second compound 10 µM, first compound 0.001 µM): 18.1%; viability, T/C (second compound 10 µM, first compound 0.00316 µM): 10.4%; viability, T/C (second compound 10 µM, first compound 0.01 µM): 16.2% |
| CC1(C)CCC(CN2CCN(c3ccc(C(=O)NS(=O)(=O)c4ccc(NCC5CCOCC5)c([N+](=O)[O-])c4)c(Oc4cnc5[nH]ccc5c4)c3)CC2)=C(c2ccc(Cl)cc2)C1 + CC(C)NCC(C(=O)N1CCN(c2ncnc3c2C(C)CC3O)CC1)c1ccc(Cl)cc1 | 5.39 | 5.50 | > 7.50 | > 7.50 | > 7.50 | 90.8 | 82.1 | 71.2 | 60 | 49.2 | 43 | 42.1 | 44.4 | 41 | 43.3 | 77.8 | 72.8 | 64.2 | 10.8 | 67.4 | viability, T/C [16]: 63%; viability, T/C [17]: 50.4%; viability, T/C [18]: 8.61%; viability, T/C [19]: 53%; viability, T/C [20]: 46.5%; viability, T/C [21]: 44.3%; viability, T/C [22]: 7.68%; viability, T/C [23]: 40.9%; viability, T/C [24]: 39.8%; viability, T/C [25]: 30.6%; viability, T/C [26]: 5.93%; viability, T/C [27]: 35.3%; viability, T/C [28]: 37.9%; viability, T/C [29]: 29.2%; viability, T/C [30]: 3.65% |
| CCCS(=O)(=O)Nc1ccc(F)c(C(=O)c2c[nH]c3ncc(-c4ccc(Cl)cc4)cc23)c1F + CC(C)NCC(C(=O)N1CCN(c2ncnc3c2C(C)CC3O)CC1)c1ccc(Cl)cc1 | < 5.00 | < 5.00 | 5.42 | > 7.50 | > 7.50 | 85.5 | 89.6 | 69.2 | 71.7 | 54.1 | 49.6 | 41.1 | 42.8 | 35.6 | 39.7 | 85 | 91.2 | 86.2 | 67.5 | 68.4 | viability, T/C [16]: 78.2%; viability, T/C [17]: 75%; viability, T/C [18]: 55.6%; viability, T/C [19]: 50%; viability, T/C [20]: 52.1%; viability, T/C [21]: 56.9%; viability, T/C [22]: 36.5%; viability, T/C [23]: 45%; viability, T/C [24]: 46.3%; viability, T/C [25]: 49.6%; viability, T/C [26]: 25.6%; viability, T/C [27]: 38.3%; viability, T/C [28]: 45.1%; viability, T/C [29]: 44%; viability, T/C [30]: 7.66% |
